# Where two headings read alike, the source gives them in different places.
# What was measured:
# Neisseria gonorrhoeae = experiment: MIC range, recent clinical and veterinary isolates; type: cell-based; settings: 18 h, [14] isolates
# Streptococcus pneumoniae = experiment: MIC range, recent clinical and veterinary isolates; type: cell-based; settings: 18 h, [10] isolates, read-out: MIC Range
# E. faecalis ATCC 29212 = experiment: MIC, agar dilution; type: cell-based; settings: Enterococcus faecalis, ATCC29212, 18 h
# Proteus mirabilis = experiment: MIC range, recent clinical and veterinary isolates; type: cell-based; settings: 18 h, [26] isolates, read-out: MIC Range
# [1] = system: Staphylococcus Coagulase-negative, (methicillin-resistant); experiment: MIC range, recent clinical and veterinary isolates; type: cell-based; settings: 18 h, [16] isolates
# Shigella spp. = experiment: MIC range, recent clinical and veterinary isolates; type: cell-based; settings: 18 h, [14] isolates
# Enterococcus 12201 = experiment: MIC, agar dilution; type: cell-based; settings: Enterococcus, 12201, 18 h, Enterococcus 12201; read-out: MIC
# E. coli UBMS 90-5 = experiment: microbe, parasite or virus in culture; type: cell-based; settings: Escherichia coli, UBMS905, 18 h, E. coli UBMS 90-5; read-out: MIC
# Salmonella spp. = experiment: MIC range, recent clinical and veterinary isolates; type: cell-based; settings: 18 h, [11] isolates
# Anaerobic Gram(+)Cocci = experiment: MIC range, recent clinical and veterinary isolates; type: cell-based; settings: 18 h, read-out: MIC Range
# Xanthamonas maltophilia = experiment: MIC range, recent clinical and veterinary isolates; type: cell-based; settings: 18 h; Xanthamonas maltophilia, [10] isolates; read-out: MIC Range
# [2] = system: Escherichia coli (Veterinary); experiment: MIC range, recent clinical and veterinary isolates; type: cell-based; settings: 18 h, [15] isolates
# Listeria monocytogenes = experiment: MIC range, recent clinical and veterinary isolates; type: cell-based; settings: 18 h, [8] isolates
# Moraxella catarrhalis = experiment: MIC range, recent clinical and veterinary isolates; type: cell-based; settings: 18 h, [18] isolates, read-out: MIC Range
# E. coli J3272 Tet C = experiment: microbe, parasite or virus in culture; type: cell-based; settings: Escherichia coli, J3272TETC, 18 h
# [3] = system: Ps. aeruginosa ATCC 27853; experiment: MIC, agar dilution; type: cell-based; settings: Pseudomonas aeruginosa, ATCC27853, 18 h
# Enterococcus faecalis = experiment: MIC range, recent clinical and veterinary isolates; type: cell-based; settings: 18 h, [10] isolates, read-out: MIC Range
# Escherichia coli = experiment: MIC range, recent clinical and veterinary isolates; type: cell-based; settings: 18 h, [30] isolates, read-out: MIC Range
# Streptococcus pyogenes = experiment: MIC range, recent clinical and veterinary isolates; type: cell-based; settings: 18 h, [10] isolates, read-out: MIC Range
# Citrobacter diversus = experiment: MIC range, recent clinical and veterinary isolates; type: cell-based; settings: Citrobacter koseri, 18 h; Citrobacter diversus, [10] isolates; read-out: MIC Range
# [4] = system: Staphylococcus aureus, (methicillin-susceptible); experiment: MIC range, recent clinical and veterinary isolates; type: cell-based; settings: 18 h; Staphylococcus aureus (methicillin-susceptible), [15] isolates; read-out: MIC Range
# [5] = system: Staphylococcus aureus strain Smith (tetracycline sensitive); experiment: Acute lethal infection in mice, S. aureus Smith; type: in vivo; settings: Staphylococcus aureus, 168 h, mice, S. aureus Smith (Sens), 7 day survival, read-out: ED50
# S. marcescens FPOR 8733 = experiment: MIC, agar dilution; type: cell-based; settings: Serratia marcescens, FPOR8733, 18 h
# Enterobacter cloacae = experiment: MIC range, recent clinical and veterinary isolates; type: cell-based; settings: 18 h, [10] isolates, read-out: MIC Range
# Enterococcus faecium = experiment: MIC range, recent clinical and veterinary isolates; type: cell-based; settings: 18 h, [10] isolates, read-out: MIC Range
# Serratia marcescens = experiment: MIC range, recent clinical and veterinary isolates; type: cell-based; settings: 18 h, read-out: MIC Range
# [6] = system: Escherichia coli UBMS 90-4 (Tet M); experiment: Acute lethal infection in mice, E. coli UBMS 90-4; settings: in Mus musculus, iv, 168 h
# [7] = system: Staphylococcus Coagulase-negative, (methicillin-susceptible); experiment: MIC range, recent clinical and veterinary isolates; type: cell-based; settings: 18 h, [14] isolates
# Pseudomonas aeruginosa = experiment: MIC range, recent clinical and veterinary isolates; type: cell-based; settings: 18 h, [10] isolates, read-out: MIC Range
# Bacteroides spp. = experiment: MIC range, recent clinical and veterinary isolates; type: cell-based; settings: 18 h; Bacteroides spp., [9] isolates; read-out: MIC Range
# Klebsiella oxytoca = experiment: MIC range, recent clinical and veterinary isolates; type: cell-based; settings: 18 h, [10] isolates, read-out: MIC Range
# Enterobacter aerogenes = experiment: MIC range, recent clinical and veterinary isolates; type: cell-based; settings: Klebsiella aerogenes, 18 h; Enterobacter aerogenes, [10] isolates; read-out: MIC Range
# [8] = system: Bordetella bronchiseptica (Veterinary); experiment: MIC range, recent clinical and veterinary isolates; type: cell-based; settings: 18 h; Bordetella bronchiseptica (Veterinary), [10] isolates; read-out: MIC Range
# Haemophilus influenzae = experiment: MIC range, recent clinical and veterinary isolates; type: cell-based; settings: 18 h, [15] isolates
# Morganella morganii = experiment: MIC range, recent clinical and veterinary isolates; type: cell-based; settings: 18 h, [16] isolates
# Bacteroides fragilis = experiment: MIC range, recent clinical and veterinary isolates; type: cell-based; settings: [11] isolates
# E. coli J3272 Tet sens = experiment: MIC, agar dilution; type: cell-based; settings: Escherichia coli, J3272TETSENS, 18 h
# Klebsiella pneumoniae = experiment: MIC range, recent clinical and veterinary isolates; type: cell-based; settings: 18 h, [10] isolates
# Clostridium difficile = experiment: MIC range, recent clinical and veterinary isolates; type: cell-based; settings: Clostridium difficile, [12] isolates
# [9] = system: Enterococcus spp, (Vancomycin-resistant); experiment: MIC range, recent clinical and veterinary isolates; type: cell-based; settings: 18 h, [8] isolates
# Citrobacter freundii = experiment: MIC range, recent clinical and veterinary isolates; type: cell-based; settings: [10] isolates
# [10] = system: Bacteroides fragilis group; experiment: MIC range, recent clinical and veterinary isolates; type: cell-based; settings: 18 h; Bacteroides fragilis group, [10] isolates; read-out: MIC Range
# [11] = system: Pasturella multocida (Veterinary); experiment: MIC range, recent clinical and veterinary isolates; type: cell-based; settings: 18 h, [17] isolates
# Proteus vulgaris = experiment: MIC range, recent clinical and veterinary isolates; type: cell-based; settings: 18 h, read-out: MIC Range
# Streptococcus agalactiae = experiment: MIC range, recent clinical and veterinary isolates; type: cell-based; settings: 18 h, [10] isolates, read-out: MIC Range
smiles,measurement,setting,value
"CN(C)c1ccc(O)c2c1C[C@H]1C[C@H]3[C@H](N(C)C)C(O)=C(C(N)=O)C(=O)[C@@]3(O)C(O)=C1C2=O [U, Minocycline, reference compound]",MIC,Neisseria gonorrhoeae,0.5 to 64 µg/mL
same,MIC,Streptococcus pneumoniae,0.06 to 0.5 µg/mL
same,MIC,E. faecalis ATCC 29212,2 µg/mL
same,MIC,Proteus mirabilis,1 to 32 µg/mL
same,MIC,[1],0.03 to 1 µg/mL
same,MIC,Shigella spp.,0.25 to 8 µg/mL
same,MIC,Enterococcus 12201,8 µg/mL
same,MIC,E. coli UBMS 90-5,1 µg/mL
same,MIC,Salmonella spp.,0.5 to 16 µg/mL
same,MIC,Anaerobic Gram(+)Cocci,0.05 to 8 µg/mL
same,MIC,Xanthamonas maltophilia,0.12 to 1 µg/mL
same,MIC,[2],1 to 16 µg/mL
same,MIC,Listeria monocytogenes,0.015 to 0.03 µg/mL
same,MIC,Moraxella catarrhalis,0.03 to 0.12 µg/mL
same,MIC,E. coli J3272 Tet C,1 µg/mL
same,MIC,[3],8 µg/mL
same,MIC,Enterococcus faecalis,0.03 to 16 µg/mL
same,MIC,Escherichia coli,0.25 to 32 µg/mL
same,MIC,Streptococcus pyogenes,0.03 to 2 µg/mL
same,MIC,Citrobacter diversus,0.25 to 4 µg/mL
same,MIC,[4],0.03 to 0.12 µg/mL
same,ED50,"[5]; iv, Intraveneous",0.37 mg/kg
same,ED50,"[5]; po, Oral",0.74 mg/kg
same,MIC,S. marcescens FPOR 8733,4 µg/mL
same,MIC,Enterobacter cloacae,0.25 to 4 µg/mL
same,MIC,Enterococcus faecium,0.03 to 16 µg/mL
same,MIC,Serratia marcescens,1 to 8 µg/mL
same,ED50,[6],> 32 mg/kg
same,MIC,[7],0.015 to 0.25 µg/mL
same,MIC,Pseudomonas aeruginosa,1 to 16 µg/mL
same,MIC,Bacteroides spp.,0.03 to 16 µg/mL
same,MIC,Klebsiella oxytoca,0.5 to 4 µg/mL
same,MIC,Enterobacter aerogenes,0.5 to 1 µg/mL
same,MIC,[8],0.06 to 0.12 µg/mL
same,MIC,Haemophilus influenzae,0.5 to 2 µg/mL
same,MIC,Morganella morganii,0.25 to 32 µg/mL
same,MIC Range,Bacteroides fragilis,<0.008 to 16 µg/mL
same,MIC,E. coli J3272 Tet sens,1 µg/mL
same,MIC,Klebsiella pneumoniae,0.5 to 8 µg/mL
same,MIC Range,Clostridium difficile,0.015 to 16 µg/mL
same,MIC,[9],0.03 to 16 µg/mL
same,MIC Range,Citrobacter freundii,0.03 to 32 µg/mL
same,MIC,[10],0.008 to 4 µg/mL
same,MIC,[11],0.015 to 4 µg/mL
same,MIC,Proteus vulgaris,0.5 to 16 µg/mL
same,MIC,Streptococcus agalactiae,0.12 to 16 µg/mL

# — patent publication US5567692A, “9-[(substituted glycyl) amido)]-6-demethyl-6-deoxytetracyclines” (priority 1995, dated 1996)
